Measured values reported in patent US11167059B2, “Compositions with reactive ingredients, and wound dressings, apparatuses, and methods” (KCI Licensing, Inc., priority 2010, dated 2021).

Tests used:
Assay type in all cases: cell-based
[1] = tested on: Pseudomonas aeruginosa ATCC 27853; experiment: Minimum Bactericidal Concentration (MBC), P. aeruginosa; conditions: % w/v Ca(OCl)2 in water
Procedure: (§1) Referring now to FIG. 17, the experiments described above for FIG. 14 were also performed with additional foams, one foam in which 1 gram of Calcium hypochlorite salt was infused (D100, shown as left column for each cycle), and one foam in which 2 grams of Calcium hypochlorite salt was dispersed (D200, shown as right column for each cycle). […] As discussed additionally below, the minimum concentration is significant because testing identified concentrations of hypochlorite-ion as low as 0.5-0.7 mM to have effective antibacterial and antimicrobial properties. Additional testing was performed to measure the zone of inhibition (ZOI) and Log Reduction of microbes for various samples of released aqueous solutions having various concentrations of hypochlorite ion, as listed in Tables 2 and 3. Table 2 lists ZOI and Log reduction data for a single cycle measured at hold times (exposure duration) of 30 seconds and 5 minutes of bacterial exposure to solution. Table 3 lists ZOI and Log reduction data for multiple cycles (each cycle including introduction of hypochlorite solution, and removal of solution prior to beginning next cycle). In the ZOI experimentation, foam discs having a diameter of 8 millimeters (mm) and a height of 5 mm were each saturated with hypochlorite-ion solution as indicated. Table 3 also lists the initial microbe count in log form (10^X, where X is listed in Table 2), log reduction in microbe count, and ZOI in mm. For the data of Table 3, the initial concentration (1×) of hypochlorite ion in solution was 5.7 mM of hypochlorite ion, which corresponds to 0.041% w/v of Ca(OCl)^2. In the Log reduction experimentation, the microbes were exposed to the respective concentration of solution for 30 seconds per cycle. […] The bold entries in Table 3 are indicative of substantially all microbes being killed. In the biofilm eradication cycles listed in Table 6 below, probes were cultured with microbes and incubated to permit formation of a biofilm on the probe. […]

[2] = tested on: Staphylococcus aureus USA 400 (MRSA); experiment: Minimum Inhibitory Concentration (MIC), S. aureus USA 400 (MRSA); conditions: % w/v Ca(OCl)2 in water
[3] = tested on: Pseudomonas aeruginosa ATCC 27853; experiment: Log reduction, multiple cycles, P. aeruginosa; conditions: 30 seconds per cycle
Procedure: (§2) Referring now to FIG. 17, the experiments described above for FIG. 14 were also performed with additional foams, one foam in which 1 gram of Calcium hypochlorite salt was infused (D100, shown as left column for each cycle), and one foam in which 2 grams of Calcium hypochlorite salt was dispersed (D200, shown as right column for each cycle). […] As discussed additionally below, the minimum concentration is significant because testing identified concentrations of hypochlorite-ion as low as 0.5-0.7 mM to have effective antibacterial and antimicrobial properties. Additional testing was performed to measure the zone of inhibition (ZOI) and Log Reduction of microbes for various samples of released aqueous solutions having various concentrations of hypochlorite ion, as listed in Tables 2 and 3. Table 2 lists ZOI and Log reduction data for a single cycle measured at hold times (exposure duration) of 30 seconds and 5 minutes of bacterial exposure to solution. Table 3 lists ZOI and Log reduction data for multiple cycles (each cycle including introduction of hypochlorite solution, and removal of solution prior to beginning next cycle). In the ZOI experimentation, foam discs having a diameter of 8 millimeters (mm) and a height of 5 mm were each saturated with hypochlorite-ion solution as indicated. Table 3 also lists the initial microbe count in log form (10^X, where X is listed in Table 2), log reduction in microbe count, and ZOI in mm. For the data of Table 3, the initial concentration (1×) of hypochlorite ion in solution was 5.7 mM of hypochlorite ion, which corresponds to 0.041% w/v of Ca(OCl)^2. In the Log reduction experimentation, the microbes were exposed to the respective concentration of solution for 30 seconds per cycle. […] The bold entries in Table 3 are indicative of substantially all microbes being killed. In the biofilm eradication cycles listed in Table 6 below, probes were cultured with microbes and incubated to permit formation of a biofilm on the probe. The probe was then exposed to solutions having various concentrations of Calcium hypochlorite solution for multiple cycles, with each cycle including exposure of the probe to solution for a duration of 5 minutes.

[4] = tested on: Staphylococcus aureus ATCC 10832; experiment: Minimum Biofilm Eradication Concentration (MBEC), S. aureus ATCC 10832; conditions: Staphylococcus aureus ATCC 10832 biofilm on probe, 5 minutes per cycle, % w/v Ca(OCl)2
Procedure: as §1

[5] = tested on: Staphylococcus aureus ATCC 10832; experiment: Log reduction, multiple cycles, S. aureus ATCC 10832; conditions: 30 seconds per cycle
Procedure: as §2

[6] = tested on: Staphylococcus aureus ATCC 10832; experiment: Minimum Inhibitory Concentration (MIC), S. aureus ATCC 10832; conditions: % w/v Ca(OCl)2 in water
[7] = tested on: C. alb.; experiment: Log reduction, single cycle, C. alb.; conditions: for ΔLog - C. alb. 30 sec.: 30 sec. exposure; for ΔLog - C. alb. 5 min.: 5 min. exposure
Procedure: as §2

[8] = tested on: Staphylococcus aureus USA 400 (MRSA); experiment: Log reduction, multiple cycles, S. aureus USA 400 (MRSA); conditions: 30 seconds per cycle
Procedure: as §2

[9] = tested on: Staphylococcus aureus USA 400 (MRSA); experiment: Minimum Bactericidal Concentration (MBC), S. aureus USA 400 (MRSA); conditions: % w/v Ca(OCl)2 in water
Procedure: as §1

[10] = tested on: MRSA; experiment: zone of inhibition (ZOI), foam discs saturated with solution, MRSA; conditions: 8 mm foam disc saturated with solution
Procedure: as §2

[11] = tested on: Pseudomonas aeruginosa ATCC 27853; experiment: Minimum Inhibitory Concentration (MIC), P. aeruginosa; conditions: % w/v Ca(OCl)2 in water
[12] = tested on: Staphylococcus aureus ATCC 10832; experiment: Minimum Bactericidal Concentration (MBC), S. aureus ATCC 10832; conditions: % w/v Ca(OCl)2 in water
Procedure: as §1

[13] = Sample Dilution 1x (5.7 mM hypochlorite ion, 0.041% w/v Ca(OCl)2)
[14] = Sample Dilution 2x of 5.7 mM hypochlorite ion
[15] = Sample Dilution 4x of 5.7 mM hypochlorite ion
[16] = Sample Dilution 8x of 5.7 mM hypochlorite ion (lowest concentration, 0.7 mM)

Substance: hypochlorite ion [OCl^− Solutions]
- Minimum Bactericidal Concentration (MBC) 1 Cycle ([1]; 1 Cycle): <0.005% w/v
- Minimum Bactericidal Concentration (MBC) 3 Cycles ([1]; 3 Cycles): <0.005% w/v
- Minimum Bactericidal Concentration (MBC) 5 Cycles ([1]; 5 Cycles): <0.005% w/v
- Minimum Inhibitory Concentration (MIC) 1 Cycle ([2]; 1 Cycle): <0.005% w/v
- Minimum Inhibitory Concentration (MIC) 3 Cycles ([2]; 3 Cycles): <0.005% w/v
- Minimum Inhibitory Concentration (MIC) 5 Cycles ([2]; 5 Cycles): <0.005% w/v
- Log Reduction Pseudomonas aeruginosa ATCC 27853 1 Cycle [3, 13]: −0.16
- Log Reduction Pseudomonas aeruginosa ATCC 27853 3 Cycles [3, 13]: 5.87
- Log Reduction Pseudomonas aeruginosa ATCC 27853 5 Cycles [3, 13]: 5.83
- Log Reduction Pseudomonas aeruginosa ATCC 27853 1 Cycle [3, 14]: −0.98
- Log Reduction Pseudomonas aeruginosa ATCC 27853 3 Cycles [3, 14]: 5.87
- Log Reduction Pseudomonas aeruginosa ATCC 27853 5 Cycles [3, 14]: 5.83
- Log Reduction Pseudomonas aeruginosa ATCC 27853 1 Cycle [3, 15]: −0.48
- Log Reduction Pseudomonas aeruginosa ATCC 27853 3 Cycles [3, 15]: 3.92
- Log Reduction Pseudomonas aeruginosa ATCC 27853 5 Cycles [3, 15]: 5.83
- Log Reduction Pseudomonas aeruginosa ATCC 27853 1 Cycle [3, 16]: −1.11
- Log Reduction Pseudomonas aeruginosa ATCC 27853 3 Cycles [3, 16]: 1.26
- Log Reduction Pseudomonas aeruginosa ATCC 27853 5 Cycles [3, 16]: 5.39
- Minimum Biofilm Eradication Concentration (MBEC) 1 Cycle ([4]; 1 Cycle): <0.005% w/v
- Minimum Biofilm Eradication Concentration (MBEC) 3 Cycles ([4]; 3 Cycles): <0.005% w/v
- Minimum Biofilm Eradication Concentration (MBEC) 5 Cycles ([4]; 5 Cycles): <0.005% w/v
- Log Reduction Staphylococcus aureus ATCC 10832 1 Cycle [5, 13]: 3.21
- Log Reduction Staphylococcus aureus ATCC 10832 3 Cycles [5, 13]: 2.82
- Log Reduction Staphylococcus aureus ATCC 10832 5 Cycles [5, 13]: 2.66
- Log Reduction Staphylococcus aureus ATCC 10832 1 Cycle [5, 14]: 3.21
- Log Reduction Staphylococcus aureus ATCC 10832 3 Cycles [5, 14]: 2.82
- Log Reduction Staphylococcus aureus ATCC 10832 5 Cycles [5, 14]: 2.66
- Log Reduction Staphylococcus aureus ATCC 10832 1 Cycle [5, 15]: 3.21
- Log Reduction Staphylococcus aureus ATCC 10832 3 Cycles [5, 15]: 2.82
- Log Reduction Staphylococcus aureus ATCC 10832 5 Cycles [5, 15]: 2.66
- Log Reduction Staphylococcus aureus ATCC 10832 1 Cycle [5, 16]: 3.21
- Log Reduction Staphylococcus aureus ATCC 10832 3 Cycles [5, 16]: 2.82
- Log Reduction Staphylococcus aureus ATCC 10832 5 Cycles [5, 16]: 2.66
- Minimum Inhibitory Concentration (MIC) 1 Cycle ([6]; 1 Cycle): <0.005% w/v
- Minimum Inhibitory Concentration (MIC) 3 Cycles ([6]; 3 Cycles): <0.005% w/v
- Minimum Inhibitory Concentration (MIC) 5 Cycles ([6]; 5 Cycles): <0.005% w/v
- ΔLog - C. alb. 30 sec. ([7]; 0.8 mM HOCl/OCl−): 2.87
- ΔLog - C. alb. 5 min. ([7]; 0.8 mM HOCl/OCl−): >7.18
- ΔLog - C. alb. 30 sec. ([7]; 1.9 mM HOCl/OCl−): 2.94
- ΔLog - C. alb. 5 min. ([7]; 1.9 mM HOCl/OCl−): 3.77
- ΔLog - C. alb. 30 sec. ([7]; 3.1 mM HOCl/OCl−): 3.08
- ΔLog - C. alb. 5 min. ([7]; 3.1 mM HOCl/OCl−): >7.18
- ΔLog - C. alb. 30 sec. ([7]; 4.0 mM HOCl/OCl−): 3.94
- ΔLog - C. alb. 5 min. ([7]; 4.0 mM HOCl/OCl−): >7.18
- ΔLog - C. alb. 30 sec. ([7]; 10.7 mM HOCl/OCl−): 7.18
- ΔLog - C. alb. 5 min. ([7]; 10.7 mM HOCl/OCl−): >7.18
- ΔLog - C. alb. 30 sec. ([7]; 15.7 mM HOCl/OCl−): 3.50
- ΔLog - C. alb. 5 min. ([7]; 15.7 mM HOCl/OCl−): >7.18
- Log Reduction Staphylococcus aureus USA 400 (MRSA) 1 Cycle [8, 13]: 4.15
- Log Reduction Staphylococcus aureus USA 400 (MRSA) 3 Cycles [8, 13]: 3.63
- Log Reduction Staphylococcus aureus USA 400 (MRSA) 5 Cycles [8, 13]: 3.91
- Log Reduction Staphylococcus aureus USA 400 (MRSA) 1 Cycle [8, 14]: 4.15
- Log Reduction Staphylococcus aureus USA 400 (MRSA) 3 Cycles [8, 14]: 3.63
- Log Reduction Staphylococcus aureus USA 400 (MRSA) 5 Cycles [8, 14]: 3.91
- Log Reduction Staphylococcus aureus USA 400 (MRSA) 1 Cycle [8, 15]: 4.15
- Log Reduction Staphylococcus aureus USA 400 (MRSA) 3 Cycles [8, 15]: 3.63
- Log Reduction Staphylococcus aureus USA 400 (MRSA) 5 Cycles [8, 15]: 3.91
- Log Reduction Staphylococcus aureus USA 400 (MRSA) 1 Cycle [8, 16]: 4.15
- Log Reduction Staphylococcus aureus USA 400 (MRSA) 3 Cycles [8, 16]: 3.63
- Log Reduction Staphylococcus aureus USA 400 (MRSA) 5 Cycles [8, 16]: 3.91
- Minimum Bactericidal Concentration (MBC) 1 Cycle ([9]; 1 Cycle): <0.005% w/v
- Minimum Bactericidal Concentration (MBC) 3 Cycles ([9]; 3 Cycles): <0.005% w/v
- Minimum Bactericidal Concentration (MBC) 5 Cycles ([9]; 5 Cycles): <0.005% w/v
- ZOI, D in mm MRSA ([10]; 0.8 mM HOCl/OCl−): 0.0 mm
- ZOI, D in mm MRSA ([10]; 1.9 mM HOCl/OCl−): 0.0 mm
- ZOI, D in mm MRSA ([10]; 3.1 mM HOCl/OCl−): 0.0 mm
- ZOI, D in mm MRSA ([10]; 4.0 mM HOCl/OCl−): 0.0 mm
- ZOI, D in mm MRSA ([10]; 10.7 mM HOCl/OCl−): 13.0 mm
- ZOI, D in mm MRSA ([10]; 15.7 mM HOCl/OCl−): 13.0 mm
- Minimum Inhibitory Concentration (MIC) 1 Cycle ([11]; 1 Cycle): <0.005% w/v
- Minimum Inhibitory Concentration (MIC) 3 Cycles ([11]; 3 Cycles): <0.005% w/v
- Minimum Inhibitory Concentration (MIC) 5 Cycles ([11]; 5 Cycles): <0.005% w/v
- Minimum Bactericidal Concentration (MBC) 1 Cycle ([12]; 1 Cycle): <0.005% w/v
- Minimum Bactericidal Concentration (MBC) 3 Cycles ([12]; 3 Cycles): <0.005% w/v
- Minimum Bactericidal Concentration (MBC) 5 Cycles ([12]; 5 Cycles): <0.005% w/v
